Patent US10160755B2 (Plexxikon Inc., priority 2015, dated 2018)

These molecules were tested against T1, BA/F3-FLT3-ITD + F691L cells (Homo sapiens, UniProt P36888, F691L, cells depend on it, form not given) (assay: BA/F3-FLT3-ITD + F691L cell proliferation assay (CellTiter-Glo)). Conditions: BaF3 FLT3 ITD/F691L cells; read-out: Cell Activity (IC50 μM) BaF3_FLT3_ITD/F691L.
T1 sequence (P36888 1-993 F691L): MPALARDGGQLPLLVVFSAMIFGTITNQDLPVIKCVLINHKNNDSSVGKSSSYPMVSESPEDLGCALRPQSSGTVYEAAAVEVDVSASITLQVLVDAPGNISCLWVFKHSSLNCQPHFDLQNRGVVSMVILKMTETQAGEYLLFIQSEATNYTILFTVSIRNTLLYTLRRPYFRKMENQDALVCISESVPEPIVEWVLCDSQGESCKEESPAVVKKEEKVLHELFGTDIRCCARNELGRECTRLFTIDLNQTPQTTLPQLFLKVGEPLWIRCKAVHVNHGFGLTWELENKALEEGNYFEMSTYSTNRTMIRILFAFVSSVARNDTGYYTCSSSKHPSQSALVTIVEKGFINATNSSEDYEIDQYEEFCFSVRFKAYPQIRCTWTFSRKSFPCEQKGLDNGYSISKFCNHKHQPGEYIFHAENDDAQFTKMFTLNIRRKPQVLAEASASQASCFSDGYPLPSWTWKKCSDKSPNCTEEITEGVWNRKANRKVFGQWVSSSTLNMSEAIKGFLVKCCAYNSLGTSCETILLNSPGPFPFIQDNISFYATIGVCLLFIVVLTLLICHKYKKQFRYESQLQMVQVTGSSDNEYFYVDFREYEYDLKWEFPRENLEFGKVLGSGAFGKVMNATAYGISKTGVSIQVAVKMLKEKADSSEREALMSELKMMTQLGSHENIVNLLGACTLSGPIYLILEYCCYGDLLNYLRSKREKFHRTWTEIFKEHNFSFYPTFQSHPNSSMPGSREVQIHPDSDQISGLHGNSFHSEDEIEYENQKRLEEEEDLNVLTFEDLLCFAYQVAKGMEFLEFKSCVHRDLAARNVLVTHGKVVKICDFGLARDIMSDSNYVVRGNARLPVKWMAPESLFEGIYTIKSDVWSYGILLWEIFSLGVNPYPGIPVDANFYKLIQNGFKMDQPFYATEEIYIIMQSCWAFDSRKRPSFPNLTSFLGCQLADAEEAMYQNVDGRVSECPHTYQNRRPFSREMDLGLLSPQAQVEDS
Assay type: cell-based, murine
Source text: The FLT3 inhibitors may also be assessed using leukemia cell lines that express endogenous FLT3-ITD or cells that are engineered to express wild-type or mutant FLT3. The cells expressing endogenous FLT3 are dependent upon FLT3 catalytic activity for growth. For the engineered cells, murine BA/F3 cells were transfected with full-length FLT3 (either wild-type, or containing the ITD, D835Y, or F691L mutations, as noted). The parental BA/F3 cells are dependent upon Interleukin-3 (IL-3) for survival, and introduction of the FLT3 constructs renders these cells dependent upon FLT3 kinase activity when cultured in the absence of IL-3. Engineered BA/F3 cell growth assays can be performed in either the absence or presence of IL-3, to assess the compound inhibition of FLT3 or to detect the presence of off-target activity, respectively. Inhibitors of FLT3 kinase activity reduce or eliminate the FLT3 oncogenic signaling, resulting in reduced cell proliferation. This inhibition is measured as a function of compound concentration to assess IC50 values.
Cells were seeded at 1×10^4 cells per well of a 96 well cell culture plate in 50 μl of cell culture medium. Compounds were dissolved in DMSO, typically at a concentration of 5 mM and were serially diluted 1:3 for a total of eight points and added to the cells to final concentrations of 10, 3.3, 1.1, 0.37, 0.12, 0.041, 0.014 and 0.0046 μM in 100 μl cell culture medium (final concentration 0.2% DMSO). […] The cells were incubated at 37° C., 5% CO2 for three days. CellTiter-Glo Buffer (Promega Cell Viability Assay catalog #G7573) and substrate were equilibrated to room temperature, and enzyme/substrate Recombinant Firefly Luciferase/Beetle Luciferin was reconstituted. The cell plates were equilibrated to room temperature for 30 minutes, then lysed by addition of an equivalent volume of the Celltiter-Glo Reagent. The plate was mixed for 10 minutes on a plate shaker to lyse the cells. The plates were read on a Tecan M1000 using Luminescence protocol modified to read 0.1 s per well. The luminescence reading assesses the ATP content, which correlates directly with cell number such that the reading as a function of compound concentration was used to determine the IC50 value.

SMILES | GI50 [µM]
FC(F)(F)Oc1cccc(-c2cnc3[nH]cc(-c4ccc5ncn(C6CCCNC6)c5c4)c3n2)c1 (centres unmarked) [P-193, 7-[3-(3-piperidyl)benzimidazol-5-yl]-2-[3-(trifluoromethoxy)phenyl]-5H-pyrrolo[2,3-b]pyrazine] | 0.0001 to 1
CC(C)(C)n1cnc2ccc(-c3c[nH]c4ncc(C#Cc5cccc(OC(F)(F)F)c5)nc34)cc21 [P-249, 7-(3-tert-butylbenzimidazol-5-yl)-2-[2-[3-(trifluoromethoxy)phenyl]ethynyl]-5H-pyrrolo[2,3-b]pyrazine] | 1 to 10
C#Cc1cnc2[nH]cc(-c3ccc4ncn(C(C)(C)C)c4c3)c2c1 [P-244, 1-tert-butyl-6-(5-ethynyl-1H-pyrrolo[2,3-b]pyridin-3-yl)benzimidazole] | 0.0001 to 1
CC(C)(CO)n1cnc2ccc(-c3c[nH]c4ncc(-c5cccc(NS(C)(=O)=O)c5)nc34)cc21 [P-115, N-[3-[7-[3-(2-hydroxy-1,1-dimethyl-ethyl)benzimidazol-5-yl]-5H-pyrrolo[2,3-b]pyrazin-2-yl]phenyl]methanesulfonamide] | 0.0001 to 1
CC(C)(C)n1cnc2ccc(-c3c[nH]c4ncc(-c5cnn(C(F)F)c5)cc34)cc21 [P-251, 1-tert-butyl-6-[5-[1-(difluoromethyl)pyrazol-4-yl]-1H-pyrrolo[2,3-b]pyridin-3-yl]benzimidazole] | 0.0001 to 1
CC(C)(C)n1cnc2ccc(-c3c[nH]c4ncc(-c5cnn(CC(F)(F)F)c5)cc34)cc21 [P-252, 1-tert-butyl-6-[5-[1-(2,2,2-trifluoroethyl)pyrazol-4-yl]-1H-pyrrolo[2,3-b]pyridin-3-yl]benzimidazole] | 0.0001 to 1
C(#Cc1cnc2[nH]cc(-c3ccc4ncn(C5CCCNC5)c4c3)c2n1)c1ccccc1 (centres unmarked) [P-248, 2-(2-phenylethynyl)-7-[3-(3-piperidyl)benzimidazol-5-yl]-5H-pyrrolo[2,3-b]pyrazine] | 0.0001 to 1
COC(=O)N1CCCC(n2cnc3ccc(-c4c[nH]c5ncc(-c6ccnc(OC)c6)nc45)cc32)C1 (centres unmarked) [P-261, methyl 3-(6-(2-(2-methoxypyridin-4-yl)-5H-pyrrolo[2,3-b]pyrazin-7-yl)-1H-benzo[d]imidazol-1-yl)piperidine-1-carboxylate] | 0.0001 to 1
Cn1cnc2ccc(-c3c[nH]c4ncc(-c5cnn(CC(F)(F)F)c5)cc34)cc21 [P-175, 1-methyl-6-[5-[1-(2,2,2-trifluoroethyl)pyrazol-4-yl]-1H-pyrrolo[2,3-b]pyridin-3-yl]benzimidazole] | 0.0001 to 1
O=S1(=O)CCCCN1c1cccc(-c2cnc3[nH]cc(-c4ccc5ncn(C6CCCNC6)c5c4)c3c2)c1 (centres unmarked) [P-224, 2-[3-[3-[3-(3-piperidyl)benzimidazol-5-yl]-1H-pyrrolo[2,3-b]pyridin-5-yl]phenyl]thiazinane 1,1-dioxide] | 0.0001 to 1
COc1cnc2[nH]cc(-c3ccc4ncn(Cc5ccc(F)cc5)c4c3)c2c1 [P-110, 1-[(4-fluorophenyl)methyl]-6-(5-methoxy-1H-pyrrolo[2,3-b]pyridin-3-yl)benzimidazole] | 0.0001 to 1
CC(C)(C)n1cnc2ccc(-c3c[nH]c4ncc(-c5cccc(N6CCCCS6(=O)=O)c5)cc34)cc21 [P-221, 2-[3-[3-(3-tert-butylbenzimidazol-5-yl)-1H-pyrrolo[2,3-b]pyridin-5-yl]phenyl]thiazinane 1,1-dioxide] | 0.0001 to 1
CC(C)(C)n1cnc2ccc(-c3c[nH]c4ncc(C#Cc5cccc(C#N)c5)cc34)cc21 [P-242, 3-[2-[3-(3-tert-butylbenzimidazol-5-yl)-1H-pyrrolo[2,3-b]pyridin-5-yl]ethynyl]benzonitrile] | 1 to 10
COc1cc(C(=O)Nc2cnc3[nH]cc(-c4ccc5ncn(C(C)(C)C)c5c4)c3c2)ccn1 [P-245, N-[3-(3-tert-butylbenzimidazol-5-yl)-1H-pyrrolo[2,3-b]pyridin-5-yl]-2-methoxy-pyridine-4-carboxamide] | 0.0001 to 1

The remaining lines, values ahead:

GI50 [µM] | SMILES
0.0001 to 1 | COc1cnc2[nH]cc(-c3ccc4ncn(-c5ccc(Cl)cc5)c4c3)c2c1 [P-104, 1-(4-chlorophenyl)-6-(5-methoxy-1H-pyrrolo[2,3-b]pyridin-3-yl)benzimidazole]
0.0001 to 1 | COc1cnc2[nH]cc(-c3ccc4ncn(-c5cccc(C#N)c5)c4c3)c2c1 [P-135, 3-[6-(5-methoxy-1H-pyrrolo[2,3-b]pyridin-3-yl)benzimidazol-1-yl]benzonitrile]
0.0001 to 1 | COc1cc(-c2cnc3[nH]cc(-c4ccc5ncn(C(C)(C)C)c5c4)c3n2)ccn1 [P-099, 7-(3-tert-butylbenzimidazol-5-yl)-2-(2-methoxy-4-pyridyl)-5H-pyrrolo[2,3-b]pyrazine]
0.0001 to 1 | CC(C)(C)n1cnc2ccc(-c3c[nH]c4ncc(-c5cccc(S(=O)(=O)N6CCCC6)c5)cc34)cc21 [P-220, 1-tert-butyl-6-[5-(3-pyrrolidin-1-ylsulfonylphenyl)-1H-pyrrolo[2,3-b]pyridin-3-yl]benzimidazole]
0.0001 to 1 | COc1ncc(-c2cnc3[nH]cc(-c4ccc5ncn(C(C)C)c5c4)c3c2)cn1 [P-269, 1-isopropyl-6-[5-(2-methoxypyrimidin-5-yl)-1H-pyrrolo[2,3-b]pyridin-3-yl]benzimidazole]
0.0001 to 1 | COc1cnc2[nH]cc(-c3ccc4ncn(-c5cccc(Cl)c5)c4c3)c2c1 [P-105, 1-(3-chlorophenyl)-6-(5-methoxy-1H-pyrrolo[2,3-b]pyridin-3-yl)benzimidazole]
0.0001 to 1 | O=S(=O)(c1cccc(-c2cnc3[nH]cc(-c4ccc5ncn(C6CCCNC6)c5c4)c3n2)c1)N1CCCC1 (centres unmarked) [P-237, 7-[3-(3-piperidyl)benzimidazol-5-yl]-2-(3-pyrrolidin-1-ylsulfonylphenyl)-5H-pyrrolo[2,3-b]pyrazine]
0.0001 to 1 | FC(F)(F)Cn1cc(-c2cnc3[nH]cc(-c4ccc5ncn(C6CCCNC6)c5c4)c3n2)cn1 (centres unmarked) [P-258, 7-[3-(3-piperidyl)benzimidazol-5-yl]-2-[1-(2,2,2-trifluoroethyl)pyrazol-4-yl]-5H-pyrrolo[2,3-b]pyrazine]
0.0001 to 1 | COc1cc(C#Cc2cnc3[nH]cc(-c4ccc5ncn(C(C)(C)C)c5c4)c3c2)ccn1 [P-240, 1-(tert-butyl)-6-(5-((2-methoxypyridin-4-yl)ethynyl)-1H-pyrrolo[2,3-b]pyridin-3-yl)-1H-benzo[d]imidazole]
0.0001 to 1 | CC(C)(C)n1cnc2ccc(-c3c[nH]c4ncc(-c5cccc(N6CCCCS6(=O)=O)c5)nc34)cc21 [P-227, 2-[3-[7-(3-tert-butylbenzimidazol-5-yl)-5H-pyrrolo[2,3-b]pyrazin-2-yl]phenyl]thiazinane 1,1-dioxide]
0.0001 to 1 | COc1cnc2[nH]cc(-c3ccc4ncn(-c5ccc(F)cc5)c4c3)c2c1 [P-103, 1-(4-fluorophenyl)-6-(5-methoxy-1H-pyrrolo[2,3-b]pyridin-3-yl)benzimidazole]
0.0001 to 1 | O=S1(=O)CCCN1c1cccc(-c2cnc3[nH]cc(-c4ccc5ncn(C6CCCNC6)c5c4)c3n2)c1 (centres unmarked) [P-273, 2-[3-[7-[3-(3-piperidyl)benzimidazol-5-yl]-5H-pyrrolo[2,3-b]pyrazin-2-yl]phenyl]-1,2-thiazolidine 1,1-dioxide]
